Data: PMC10052977, “α,ω-Diacyl-Substituted Analogues of Natural and Unnatural Polyamines: Identification of Potent Bactericides That Selectively Target Bacterial Membranes” (International Journal of Molecular Sciences, 2023)
≈ marks a conversion by molar mass, not a printed value. Where two headings read alike, the source gives them in different places.

Columns and labels:
[1] = test system: Staphylococcus aureus ATCC 25923 or ATCC 29213; assay: MIC, broth dilution (CA-SFM); assay type: cell-based; details: Staphylococcus aureus ATCC 25923 or ATCC 29213; mean (n = 3); read-out: MIC S. a
[2] = test system: MRSA ATCC 43300; assay: MIC, CO-ADD broth microdilution; assay type: cell-based, Staphylococcus aureus; details: Staphylococcus aureus, read-out: MIC MRSA
[3] = test system: Escherichia coli ATCC 25922; assay: MIC, CO-ADD broth microdilution; assay type: cell-based; details: ATCC25922, mean (n = 2)
[4] = test system: Pseudomonas aeruginosa PAO1 or ATCC 27853; assay: MIC, broth dilution (CA-SFM); assay type: cell-based; details: mean (n = 3)
[5] = test system: Klebsiella pneumoniae ATCC700603; assay: MIC, CO-ADD broth microdilution; assay type: cell-based; details: mean (n = 2)
[6] = test system: Acinetobacter baumannii ATCC19606; assay: MIC, CO-ADD broth microdilution; assay type: cell-based; details: mean (n = 2)
[7] = test system: Candida albicans ATCC90028; assay: Antifungal MIC, CO-ADD; assay type: cell-based; details: mean (n = 2)
Procedure: (§1) For the antifungal assay, fungi strains were cultured for 3 days on YPD agar at 30 °C. A yeast suspension of 1 × 10^6 to 5 × 10^6 CFU/mL was prepared from five colonies. These stock suspensions were diluted with yeast nitrogen base (YNB) (Becton Dickinson, 233520) broth to a final concentration of 2.5 × 10^3 CFU/mL. […] Plates were covered and incubated at 35 °C for 36 h without shaking. C. albicans MICs were determined by measuring the absorbance at OD530. […] Fluconazole was used as a positive fungal inhibitor standard for C. albicans and C. neoformans. […] Quality control (QC) of the assays was determined by antimicrobial controls and Z’-factor (using positive and negative controls).

[8] = test system: Cryptococcus neoformans ATCC208821; assay: Antifungal MIC, CO-ADD; assay type: cell-based; details: ATCC208821, Cryptococcus neoformans ATCC208821, mean (n = 2)
Procedure: as §1

[9] = Cytotoxicity assay (resazurin); assay type: cell-based, human; details: human; HEK293 cells; mean (n = 2); highest dose tested 32 μg/mL; read-out: Cytotoxicity (concentration of compound at 50% cytotoxicity, IC50)
[10] = test system: human red blood cells; assay: Hemolytic assay; assay type: cell-based; details: mean (n = 2)
Procedure: Human whole blood was washed three times with 3 volumes of 0.9% NaCl and then resuspended in same to a concentration of 0.5 × 10^8 cells/mL, as determined by manual cell count in a Neubauer hemocytometer. The washed cells were then added to the 384-well compound-containing plates for a final volume of 50 μL. After a 10 min shake on a plate shaker, the plates were then incubated for 1 h at 37 °C. After incubation, the plates were centrifuged at 1000× g for 10 min to pellet cells and debris; 25 μL of the supernatant was then transferred to a polystyrene 384-well assay plate. Hemolysis was determined by measuring the supernatant absorbance at […] (OD405). The absorbance was measured using a Tecan M1000 Pro monochromator plate reader. HC10 and HC50 (concentration at 10% and 50% hemolysis, respectively) were calculated by curve fitting the inhibition values vs. log (concentration) using a sigmoidal dose–response function with variable fitting values for top, bottom and slope.

SMILES	MIC [1]	MIC ([2]; MRSA ATCC 43300, mean (n = 2))	MIC [3]	MIC [4]	MIC [5]	MIC [6]	MIC [7]	MIC [8]	IC50 at 20 h [9]	Hemolysis (HC10, concentration at 10% hemolytic activity) [10]	MIC [2]
O=C(N[C@H](CO)[C@H](O)c1ccc([N+](=O)[O-])cc1)C(Cl)Cl [chloramphenicol, reference compound]	1.5 to 3 µM (≈ 0.485 to 0.969 µg/mL)	–	–	–	–	–	–	–	–	–	–
[H]/N=C(/N)N[C@H]1[C@H](O)[C@@H](O)[C@H](O[C@@H]2O[C@@H](C)[C@](O)(C=O)[C@H]2O[C@@H]2O[C@@H](CO)[C@H](O)[C@@H](O)[C@@H]2NC)[C@@H](N/C(N)=N\[H])[C@@H]1O [streptomycin, reference compound]	21.5 µM (≈ 12.5 µg/mL)	–	–	21.5 µM (≈ 12.5 µg/mL)	–	–	–	–	–	–	–
CN[C@H](CC(C)C)C(=O)N[C@H]1C(=O)N[C@@H](CC(N)=O)C(=O)N[C@H]2C(=O)N[C@H]3C(=O)N[C@H](C(=O)N[C@H](C(=O)O)c4cc(O)cc(O)c4-c4cc3ccc4O)[C@H](O)c3ccc(c(Cl)c3)Oc3cc2cc(c3O[C@@H]2O[C@H](CO)[C@@H](O)[C@H](O)[C@H]2O[C@H]2C[C@](C)(N)[C@H](O)[C@H](C)O2)Oc2ccc(cc2Cl)[C@H]1O [vancomycin, reference compound]	–	–	–	–	–	–	–	–	–	–	0.7 µM (≈ 1.01 µg/mL)
OC(Cn1cncn1)(Cn1cncn1)c1ccc(F)cc1F [fluconazole, reference compound]	–	–	–	–	–	–	0.4 µM (≈ 0.123 µg/mL)	26 µM (≈ 7.96 µg/mL)	–	–	–
C[C@H]1c2cccc(O)c2C(=O)C2=C(O)[C@]3(O)C(=O)C(C(N)=O)=C(O)[C@@H](N(C)C)[C@@H]3[C@@H](O)[C@@H]21 [doxycycline, reference compound]	–	–	–	90 µM (≈ 40 µg/mL)	–	–	–	–	–	–	–
CC/C(=C(\c1ccccc1)c1ccc(OCCN(C)C)cc1)c1ccccc1 [Tamoxifen, reference compound]	–	–	–	–	–	–	–	–	24 µM	–	–

Further lines, with some results ahead:

MIC [1]	MIC ([2]; MRSA ATCC 43300, mean (n = 2))	MIC [3]	MIC [4]	MIC [5]	MIC [6]	MIC [7]	MIC [8]	SMILES	IC50 at 20 h [9]	Hemolysis (HC10, concentration at 10% hemolytic activity) [10]	MIC [2]
> 265 µM	≤ 0.33 µM	≤ 0.33 µM	265 µM	> 42.4 µM	10.7 µM	≤ 0.33 µM	> 42.4 µM	Cl.Cl.S=C(NCCCNCCCCCCNCCCNC(=S)NC(c1ccccc1)c1ccccc1)NC(c1ccccc1)c1ccccc1 [Compound 6b, N^1,N^6-Bis(3-(3-benzhydrylthioureido)propyl)hexane-1,6-diaminium chloride]	> 42.4 µM	2.96 µM	–
3.12 µM	< 0.24 µM	7.58 µM	200 µM	> 30.3 µM	7.6 µM	< 0.24 µM	7.6 µM	O=C(CC(c1ccccc1)(c1ccccc1)c1ccccc1)NCCCNCCCCCCCCNCCCNC(=O)CC(c1ccccc1)(c1ccccc1)c1ccccc1.O=C(O)C(F)(F)F.O=C(O)C(F)(F)F [Compound 18d, N^1,N^8-Bis(3-(3,3,3-triphenylpropanamido)propyl)octane-1,8-diaminium 2,2,2-trifluoroacetate]	9.7 µM	3.17 µM	–
720 µM (≈ 336 µg/mL)	> 46.1 µM	> 46.1 µM	720 µM (≈ 336 µg/mL)	> 46.1 µM	> 46.1 µM	> 46.1 µM	> 46.1 µM	O=C(CCc1ccccc1)NCCCNCCCCNCCCNC(=O)CCc1ccccc1 [Compound 13a, N^1,N^4-Bis(3-(3-phenylpropanamido)propyl)butane-1,4-diaminium 2,2,2-trifluoroacetate]	–	–	–
> 200 µM	> 35.8 µM	> 35.8 µM	> 200 µM	> 35.8 µM	> 35.8 µM	> 35.8 µM	> 35.8 µM	O=C(CCC(=O)NCCCc1ccccc1)NCCCNCCCCCCNCCCNC(=O)CCC(=O)NCCCc1ccccc1 [Compound 14b, N^1,N^6-Bis(3-(4-oxo-4-((3-phenylpropyl)amino)butanamido)propyl)hexane-1,6-diaminium 2,2,2-trifluoroacetate]	–	–	–
200 µM (≈ 136 µg/mL)	> 35.3 µM	> 35.3 µM	> 200 µM	> 35.3 µM	> 35.3 µM	> 35.3 µM	> 35.3 µM	O=C(CCC(=O)NCCCc1ccccc1)NCCCNCCCCCCCNCCCNC(=O)CCC(=O)NCCCc1ccccc1 [Compound 14c, N^1,N^7-Bis(3-(4-oxo-4-((3-phenylpropyl)amino)butanamido)propyl)heptane-1,7-diaminium 2,2,2-trifluoroacetate]	–	–	–
